Measured values taken from US12503426B2, “Synthetic derivatives of oleoyl-lysophosphatidylinositol (oleoyl-LPI) and uses thereof” (LIPOVEXA SRL, priority 2017, dated 2025).

System: ERK
Experiment: ERK phosphorylation by Western blot, Glutag cells
Format: cell-based, murine
Conditions: time course over 2 hours
Protocol: When cell cultures reached 80-90%, media were removed and cells were washed twice with 1×PBS. The cells were lysed in 150 μl (for one well of a 6 well plate) of Triton X-100 lysis buffer, containing phosphatase inhibitor cocktail (1:1000) (Sigma Aldrich, UK) and protease inhibitor (1:1000, Sigma Aldrich, UK). Cells were detached with scrapers and lysate were collected and centrifuged at 10,000 rpm, 4° C. for 5 minutes. The supernatant was then transferred to a 1.5 ml microcentrifuge tube and used for protein quantification. Cell lysates were stored at −20° C. for longer storage. All lysates were prepared on ice.
Non-specific antibody binding was prevented by incubating the nitrocellulose membrane in 5% milk in PBS-0.05% Tween-20 (v/v) for 30 minutes on a rotating plate. The membrane was then washed in PBS-0.05% Tween-20 (v/v) and then incubated with the primary antibody diluted in PBS-0.05% Tween-20 (v/v) on a rotating plate overnight at 4° C. After 24 hours, the membrane was washed 5× for 5 minutes with PBS-0.05% Tween-20 (v/v), and then incubated on a rotating plate with the appropriate secondary antibody for 1 hour at room temperature. […]

Substance: oleoyl-lysophosphatidylinositol [oleoyl-LPI]
- p-ERK, time course: increased p-ERK within 10 min and sustained a high level for 120 min
